# Key:
# Assay type in all cases: in vivo
# [1] = tested on: redroot pigweed (Amaranthus retroflexus); assay: Test G Post-Emergence Protocol; conditions: Amaranthus retroflexus, post-emergence, 312 h; for pest or weed control at 15.625 g/ha: 15.625 g ai/ha, evaluated after 13 days (100=total damage to plant; 0=no damage to plant), read-out: Pigweed, Redroot damage rating; for pest or weed control at 62.5 g/ha: 62.5 g ai/ha, read-out: Pigweed, Redroot damage rating (100=total damage to plant; 0=no damage to plant); for pest or weed control at 62.5 g/ha / pest or weed control at 250 g/ha: evaluated after 13 days; for pest or weed control at 250 g/ha: 250 g ai/ha, read-out: damage to plant, Pigweed, Redroot (100=total damage to plant; 0=no damage to plant)
# In short: (§1)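 Foliar application was made 8 days after sowing, using an aqueous spray of the active in acetone/water (50:50) with 0.5% Tween 20, at doses of 15.625, 62.5 or 250 g/ha. Injury was assessed 13 days later, where 100 meant the plant was fully damaged.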
# [2] = tested on: giant foxtail (Setaria faberi); assay: Test G Post-Emergence Protocol; conditions: Setaria faberi, post-emergence, 312 h; for pest or weed control at 15.625 g/ha: 15.625 g ai/ha, evaluated after 13 days (100=total damage to plant; 0=no damage to plant), read-out: Foxtail, Giant damage rating; for pest or weed control at 62.5 g/ha: 62.5 g ai/ha, read-out: Foxtail, Giant damage rating (100=total damage to plant; 0=no damage to plant); for pest or weed control at 62.5 g/ha / pest or weed control at 250 g/ha: evaluated after 13 days; for pest or weed control at 250 g/ha: 250 g ai/ha, read-out: damage to plant, Foxtail, Giant (100=total damage to plant; 0=no damage to plant)
# In short: as §1
# [3] = tested on: ivy-leaved morning glory (Ipomoea hederacea); assay: Test G Post-Emergence Protocol; conditions: Ipomoea, post-emergence, 312 h; for pest or weed control at 15.625 g/ha: 15.625 g ai/ha, evaluated after 13 days (100=total damage to plant; 0=no damage to plant), read-out: Morningglory, Ivy-leaved damage rating; for pest or weed control at 62.5 g/ha: 62.5 g ai/ha, read-out: Morningglory, Ivy-leaved damage rating (100=total damage to plant; 0=no damage to plant); for pest or weed control at 62.5 g/ha / pest or weed control at 250 g/ha: evaluated after 13 days; for pest or weed control at 250 g/ha: 250 g ai/ha, read-out: damage to plant, Morningglory, Ivy-leaved (100=total damage to plant; 0=no damage to plant)
# In short: as §1
# [4] = tested on: barnyardgrass (Echinochloa crus-galli); assay: Test G Post-Emergence Protocol; conditions: Echinochloa crus-galli, post-emergence, 312 h; for pest or weed control at 15.625 g/ha: 15.625 g ai/ha, evaluated after 13 days (100=total damage to plant; 0=no damage to plant), read-out: Barnyardgrass damage rating; for pest or weed control at 62.5 g/ha: 62.5 g ai/ha, read-out: Barnyardgrass damage rating (100=total damage to plant; 0=no damage to plant); for pest or weed control at 62.5 g/ha / pest or weed control at 250 g/ha: evaluated after 13 days; for pest or weed control at 250 g/ha: 250 g ai/ha, read-out: damage to plant, Barnyardgrass (100=total damage to plant; 0=no damage to plant)
# In short: as §1
# [5] = tested on: corn (Zea mays); assay: Test G Post-Emergence Protocol; conditions: Zea mays, post-emergence, 312 h; for plant injury at 15.625 g/ha: 15.625 g ai/ha, evaluated after 13 days (100=total damage to plant; 0=no damage to plant), read-out: Corn damage rating; for plant injury at 62.5 g/ha: 62.5 g ai/ha, read-out: Corn damage rating (100=total damage to plant; 0=no damage to plant); for plant injury at 62.5 g/ha / plant injury at 250 g/ha: evaluated after 13 days; for plant injury at 250 g/ha: 250 g ai/ha, read-out: damage to plant, Corn (100=total damage to plant; 0=no damage to plant)
# In short: as §1
# [6] = tested on: velvetleaf (Abutilon theophrasti); assay: Test G Post-Emergence Protocol; conditions: Abutilon theophrasti, post-emergence, 312 h; for pest or weed control at 15.625 g/ha: 15.625 g ai/ha, evaluated after 13 days (100=total damage to plant; 0=no damage to plant), read-out: Velvetleaf damage rating; for pest or weed control at 62.5 g/ha: 62.5 g ai/ha, read-out: Velvetleaf damage rating (100=total damage to plant; 0=no damage to plant); for pest or weed control at 62.5 g/ha / pest or weed control at 250 g/ha: evaluated after 13 days; for pest or weed control at 250 g/ha: 250 g ai/ha, read-out: damage to plant, Velvetleaf (100=total damage to plant; 0=no damage to plant)
# In short: as §1
# [7] = tested on: redroot pigweed (Amaranthus retroflexus); assay: Test G Pre-Emergence Protocol; conditions: Amaranthus retroflexus, pre-emergence, 312 h, evaluated after 13 days; for pest or weed control at 15.625 g/ha: 15.625 g ai/ha; for pest or weed control at 15.625 g/ha / pest or weed control at 250 g/ha: read-out: Pigweed, Redroot damage rating (100=total damage to plant; 0=no damage to plant); for pest or weed control at 62.5 g/ha: 62.5 g ai/ha, 100=total damage to plant, 0=no damage to plant, read-out: plant damage rating, Pigweed, Redroot; for pest or weed control at 250 g/ha: 250 g ai/ha
# In short: (§2)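 Herbicidal effect was rated 13 days post-application on a scale where 100 equals total damage. Spraying took place the day after sowing, using 15.625, 62.5 or 250 g/ha of compound in a 50:50 acetone/water solution with 0.5% Tween 20.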
# [8] = tested on: giant foxtail (Setaria faberi); assay: Test G Pre-Emergence Protocol; conditions: Setaria faberi, pre-emergence, 312 h, evaluated after 13 days; for pest or weed control at 15.625 g/ha: 15.625 g ai/ha; for pest or weed control at 15.625 g/ha / pest or weed control at 250 g/ha: read-out: Foxtail, Giant damage rating (100=total damage to plant; 0=no damage to plant); for pest or weed control at 62.5 g/ha: 62.5 g ai/ha, 100=total damage to plant, 0=no damage to plant, read-out: plant damage rating, Foxtail, Giant; for pest or weed control at 250 g/ha: 250 g ai/ha
# In short: as §2
# [9] = tested on: ivy-leaved morning glory (Ipomoea hederacea); assay: Test G Pre-Emergence Protocol; conditions: Ipomoea, pre-emergence, 312 h, evaluated after 13 days; for pest or weed control at 15.625 g/ha: 15.625 g ai/ha, read-out: Morning-glory, Ivy-leaved damage rating (100=total damage to plant; 0=no damage to plant); for pest or weed control at 62.5 g/ha: 62.5 g ai/ha, 100=total damage to plant, 0=no damage to plant, read-out: plant damage rating, Morningglory, Ivy-leaved; for pest or weed control at 250 g/ha: 250 g ai/ha, read-out: Morningglory, Ivy-leaved damage rating (100=total damage to plant; 0=no damage to plant)
# In short: as §2
# [10] = tested on: barnyardgrass (Echinochloa crus-galli); assay: Test G Pre-Emergence Protocol; conditions: Echinochloa crus-galli, pre-emergence, 312 h, evaluated after 13 days; for pest or weed control at 15.625 g/ha: 15.625 g ai/ha, read-out: Barnyard grass damage rating (100=total damage to plant; 0=no damage to plant); for pest or weed control at 62.5 g/ha: 62.5 g ai/ha, 100=total damage to plant, 0=no damage to plant, read-out: plant damage rating, Barnyardgrass; for pest or weed control at 250 g/ha: 250 g ai/ha, read-out: Barnyardgrass damage rating (100=total damage to plant; 0=no damage to plant)
# In short: as §2
# [11] = tested on: corn (Zea mays); assay: Test G Pre-Emergence Protocol; conditions: Zea mays, pre-emergence, 312 h, evaluated after 13 days; for plant injury at 15.625 g/ha: 15.625 g ai/ha; for plant injury at 15.625 g/ha / plant injury at 250 g/ha: read-out: Corn damage rating (100=total damage to plant; 0=no damage to plant); for plant injury at 62.5 g/ha: 62.5 g ai/ha, 100=total damage to plant, 0=no damage to plant, read-out: plant damage rating, Corn; for plant injury at 250 g/ha: 250 g ai/ha
# In short: as §2
# [12] = tested on: velvetleaf (Abutilon theophrasti); assay: Test G Pre-Emergence Protocol; conditions: Abutilon theophrasti, pre-emergence, 312 h, evaluated after 13 days; for pest or weed control at 15.625 g/ha: 15.625 g ai/ha; for pest or weed control at 15.625 g/ha / pest or weed control at 250 g/ha: read-out: Velvetleaf damage rating (100=total damage to plant; 0=no damage to plant); for pest or weed control at 62.5 g/ha: 62.5 g ai/ha, 100=total damage to plant, 0=no damage to plant, read-out: plant damage rating, Velvetleaf; for pest or weed control at 250 g/ha: 250 g ai/ha
# In short: as §2
Structure (SMILES),pest or weed control at 15.625 g/ha [1] [%],pest or weed control at 62.5 g/ha [1] [%],pest or weed control at 250 g/ha [1] [%],pest or weed control at 15.625 g/ha [2] [%],pest or weed control at 62.5 g/ha [2] [%],pest or weed control at 250 g/ha [2] [%],pest or weed control at 15.625 g/ha [3] [%],pest or weed control at 62.5 g/ha [3] [%],pest or weed control at 250 g/ha [3] [%],pest or weed control at 15.625 g/ha [4] [%],pest or weed control at 62.5 g/ha [4] [%],pest or weed control at 250 g/ha [4] [%],plant injury at 15.625 g/ha [5] [%],plant injury at 62.5 g/ha [5] [%],plant injury at 250 g/ha [5] [%],pest or weed control at 15.625 g/ha [6] [%],pest or weed control at 62.5 g/ha [6] [%],pest or weed control at 250 g/ha [6] [%],pest or weed control at 15.625 g/ha [7] [%],pest or weed control at 62.5 g/ha [7] [%],other results
COc1c(Cl)ccc([C@H]2CNC(=O)[C@@H]2C(=O)Nc2cccc(F)n2)c1F (racemic) [Compound 1478],0,0,10,10,30,60,0,0,10,10,40,60,0,10,20,0,0,0,0,0,pest or weed control at 250 g/ha [7]: 0%; pest or weed control at 15.625 g/ha [8]: 0%; pest or weed control at 62.5 g/ha [8]: 0%; pest or weed control at 250 g/ha [8]: 40%; pest or weed control at 15.625 g/ha [9]: 0%; pest or weed control at 62.5 g/ha [9]: 0%; pest or weed control at 250 g/ha [9]: 0%; pest or weed control at 15.625 g/ha [10]: 0%; pest or weed control at 62.5 g/ha [10]: 0%; pest or weed control at 250 g/ha [10]: 30%; plant injury at 15.625 g/ha [11]: 0%; plant injury at 62.5 g/ha [11]: 0%; plant injury at 250 g/ha [11]: 10%; pest or weed control at 15.625 g/ha [12]: 0%; pest or weed control at 62.5 g/ha [12]: 0%; pest or weed control at 250 g/ha [12]: 0%
CN1C[C@@H](c2ccc(C(F)(F)F)cc2)[C@H](C(=O)Nc2nccnc2Cl)C1=O (racemic) [Compound 1552],0,0,0,0,0,0,0,0,0,0,0,0,10,10,10,0,0,0,0,0,pest or weed control at 250 g/ha [7]: 0%; pest or weed control at 15.625 g/ha [8]: 0%; pest or weed control at 62.5 g/ha [8]: 0%; pest or weed control at 250 g/ha [8]: 0%; pest or weed control at 15.625 g/ha [9]: 0%; pest or weed control at 62.5 g/ha [9]: 0%; pest or weed control at 250 g/ha [9]: 0%; pest or weed control at 15.625 g/ha [10]: 0%; pest or weed control at 62.5 g/ha [10]: 0%; pest or weed control at 250 g/ha [10]: 0%; plant injury at 15.625 g/ha [11]: 0%; plant injury at 62.5 g/ha [11]: 0%; plant injury at 250 g/ha [11]: 0%; pest or weed control at 15.625 g/ha [12]: 0%; pest or weed control at 62.5 g/ha [12]: 0%; pest or weed control at 250 g/ha [12]: 0%
